Measurements from patent publication US7446199B2, “Compositions useful as inhibitors of protein kinases” (Vertex Pharmaceuticals Incorporated, priority 2003, dated 2008).

What was measured:
Assay type in all cases: biochemical
KDR = KDR (Homo sapiens, UniProt P35968); experiment: KDR enzyme assay, coupled enzyme assay; conditions: 300 μM ATP, 10 μM poly E4Y, 30 nM KDR, 37° C.
How it was run: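 Coupled enzyme (PK/LDH, NADH) assay with 30 nM KDR in 200 mM HEPES 7.5, 10 mM MgCl2, 25 mM NaCl, 1 mM DTT, 1.5% DMSO; 300 μM ATP, 10 μM poly E4Y. Compound at 30 μM final, preincubated ~10 min at 37 °C before ATP start; rates read over 5 min at 37 °C.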

GSK-3β, (AA 1-420) = GSK-3β, (AA 1-420) (Homo sapiens, UniProt P49841); experiment: GSK-3 inhibition assay, coupled enzyme system; conditions: 20 μM ATP, 300 μM peptide, 20 nM GSK-3b, 30° C.; read-out: Ki values (GSK3)
Chain of GSK-3β, (AA 1-420) (P49841 whole entry, the tested form may be a part): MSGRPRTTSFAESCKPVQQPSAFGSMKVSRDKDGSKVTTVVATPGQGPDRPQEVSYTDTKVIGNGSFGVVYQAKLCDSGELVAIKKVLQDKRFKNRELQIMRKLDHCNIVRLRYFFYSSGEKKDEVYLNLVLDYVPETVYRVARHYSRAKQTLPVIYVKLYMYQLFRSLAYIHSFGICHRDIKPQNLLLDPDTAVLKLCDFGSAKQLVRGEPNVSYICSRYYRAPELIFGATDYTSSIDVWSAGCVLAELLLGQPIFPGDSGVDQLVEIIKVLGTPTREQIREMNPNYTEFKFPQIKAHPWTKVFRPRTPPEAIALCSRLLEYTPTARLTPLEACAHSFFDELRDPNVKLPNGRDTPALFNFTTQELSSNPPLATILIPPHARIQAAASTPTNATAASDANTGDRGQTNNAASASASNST
How it was run: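 Pyruvate kinase/lactate dehydrogenase-coupled NADH assay with 20 nM enzyme, 20 μM ATP and 300 μM peptide in HEPES pH 7.5, 1.5% DMSO, 30° C. Compound (0.002–30 μM, 12-point) preincubated 10 min before ATP start; rates over 10 min gave Ki.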

JAK3 = target: T1, JAK3 (Homo sapiens, UniProt P52333); experiment: JAK3 inhibition assay (ELISA, Poly (Glu, Ala, Tyr) coated plates); conditions: 2 mM ATP, 60 minutes at 30° C.
T1 sequence (P52333 1-1124): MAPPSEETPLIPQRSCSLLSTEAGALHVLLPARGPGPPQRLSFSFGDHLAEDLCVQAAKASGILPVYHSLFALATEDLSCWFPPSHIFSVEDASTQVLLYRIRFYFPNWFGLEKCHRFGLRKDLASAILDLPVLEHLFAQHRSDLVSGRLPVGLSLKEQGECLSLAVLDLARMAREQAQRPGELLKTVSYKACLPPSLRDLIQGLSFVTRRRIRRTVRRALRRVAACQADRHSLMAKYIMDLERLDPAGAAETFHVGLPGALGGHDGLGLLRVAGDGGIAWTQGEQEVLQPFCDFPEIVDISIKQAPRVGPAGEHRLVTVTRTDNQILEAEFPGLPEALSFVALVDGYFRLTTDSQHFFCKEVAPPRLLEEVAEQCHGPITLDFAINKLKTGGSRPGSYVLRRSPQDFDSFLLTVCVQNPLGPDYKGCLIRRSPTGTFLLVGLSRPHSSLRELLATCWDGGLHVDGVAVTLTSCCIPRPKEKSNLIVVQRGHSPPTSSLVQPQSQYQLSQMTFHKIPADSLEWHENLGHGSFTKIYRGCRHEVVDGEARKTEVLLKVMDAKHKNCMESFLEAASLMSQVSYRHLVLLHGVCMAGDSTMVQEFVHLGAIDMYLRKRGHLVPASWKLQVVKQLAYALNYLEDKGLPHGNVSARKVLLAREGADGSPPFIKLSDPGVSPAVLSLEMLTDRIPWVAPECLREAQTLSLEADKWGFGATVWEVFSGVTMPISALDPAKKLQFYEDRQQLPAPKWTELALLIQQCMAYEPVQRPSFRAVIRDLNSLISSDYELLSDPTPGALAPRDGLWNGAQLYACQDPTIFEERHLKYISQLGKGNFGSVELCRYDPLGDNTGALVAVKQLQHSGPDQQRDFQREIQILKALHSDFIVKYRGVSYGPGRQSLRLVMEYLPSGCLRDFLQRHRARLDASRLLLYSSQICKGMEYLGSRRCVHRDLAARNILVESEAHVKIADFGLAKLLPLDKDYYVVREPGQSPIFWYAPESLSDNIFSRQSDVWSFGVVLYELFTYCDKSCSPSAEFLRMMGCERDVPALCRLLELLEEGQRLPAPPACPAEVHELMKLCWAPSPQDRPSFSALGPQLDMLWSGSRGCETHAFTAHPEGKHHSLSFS
How it was run: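 ELISA on Poly(Glu,Ala,Tyr) 6:3:1-coated plates with 2 mM ATP and 5 mM MgCl2. JAK enzyme started the reaction, run 60 min at 30° C. Phosphotyrosine was detected with HRP-conjugated 4G10 antibody and TMB, read at 450 nm, and IC50 was derived from optical densities.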

Chain of KDR (P35968 20-1356): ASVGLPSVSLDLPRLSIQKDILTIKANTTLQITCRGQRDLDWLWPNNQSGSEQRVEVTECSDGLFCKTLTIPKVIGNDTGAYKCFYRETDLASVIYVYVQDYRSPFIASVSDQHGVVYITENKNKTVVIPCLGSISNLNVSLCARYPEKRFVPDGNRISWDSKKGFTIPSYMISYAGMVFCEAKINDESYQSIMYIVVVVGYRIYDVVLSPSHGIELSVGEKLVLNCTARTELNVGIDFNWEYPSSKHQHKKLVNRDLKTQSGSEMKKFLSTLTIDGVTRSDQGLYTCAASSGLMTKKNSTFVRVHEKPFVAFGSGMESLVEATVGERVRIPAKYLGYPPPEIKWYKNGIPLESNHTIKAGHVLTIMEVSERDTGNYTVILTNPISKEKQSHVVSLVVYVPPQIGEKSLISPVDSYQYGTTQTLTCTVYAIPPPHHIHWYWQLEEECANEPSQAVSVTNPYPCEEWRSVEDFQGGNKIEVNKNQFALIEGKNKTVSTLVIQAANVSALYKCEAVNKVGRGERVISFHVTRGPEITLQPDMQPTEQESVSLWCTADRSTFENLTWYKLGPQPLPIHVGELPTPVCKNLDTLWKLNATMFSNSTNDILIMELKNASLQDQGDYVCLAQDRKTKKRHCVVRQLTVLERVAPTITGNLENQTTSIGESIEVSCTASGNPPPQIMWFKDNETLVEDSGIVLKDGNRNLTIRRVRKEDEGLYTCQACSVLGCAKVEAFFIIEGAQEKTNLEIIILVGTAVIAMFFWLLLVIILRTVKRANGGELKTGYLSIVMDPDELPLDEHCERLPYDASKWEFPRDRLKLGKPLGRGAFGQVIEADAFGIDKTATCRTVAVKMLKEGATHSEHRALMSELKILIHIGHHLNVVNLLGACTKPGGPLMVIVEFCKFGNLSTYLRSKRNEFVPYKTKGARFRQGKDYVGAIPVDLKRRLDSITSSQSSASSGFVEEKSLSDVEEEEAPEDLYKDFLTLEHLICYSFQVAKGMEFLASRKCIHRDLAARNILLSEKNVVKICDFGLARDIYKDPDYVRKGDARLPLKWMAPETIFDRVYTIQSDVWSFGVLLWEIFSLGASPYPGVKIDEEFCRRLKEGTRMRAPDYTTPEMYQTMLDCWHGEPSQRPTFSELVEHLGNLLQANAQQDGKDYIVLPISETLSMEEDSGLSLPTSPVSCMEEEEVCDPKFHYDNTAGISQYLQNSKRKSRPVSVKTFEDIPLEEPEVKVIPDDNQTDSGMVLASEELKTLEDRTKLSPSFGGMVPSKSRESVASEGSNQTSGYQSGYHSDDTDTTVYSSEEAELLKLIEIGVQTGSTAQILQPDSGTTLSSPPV

Compound `CN1CCN(C(=O)[C@H]2C[C@@H]2c2cnc3[nH]cc(-c4oncc4-c4cccc(F)c4F)c3c2)CC1` (relative stereo) [Compound 142, trans-(2-{3-[4-(2,3-Difluoro-phenyl)-isoxazol-5-yl]-1H-pyrrolo[2,3-b]pyridin-5-yl}-cyclopropyl)-(4-methyl-piperazin-1-yl)-methanone] has a Ki (KDR) of 200 to 1000 nM, a Ki (GSK-3β, (AA 1-420)) of 200 to 1000 nM and a Ki (JAK3) of 200 to 1000 nM.
Work on `COc1cnc2[nH]cc(-c3nncn3-c3cccc(F)c3F)c2c1` [Compound 108, 3-[4-(2,3-Difluoro-phenyl)-4H-[1,2,4]triazol-3-yl]-5-methoxy-1H-pyrrolo[2,3-b]pyridine] yielded a Ki (GSK-3β, (AA 1-420)) of 1000 to 12500 nM and a Ki (JAK3) of 1000 to 12500 nM.
Work on `Fc1cc(F)c(F)c(-c2cnoc2-c2c[nH]c3ncccc23)c1` [Compound 39, 3-[4-(2,3,5-Trifluoro-phenyl)-isoxazol-5-yl]-1H-pyrrolo [2,3-b]pyridine] yielded a Ki (KDR) of 1000 to 12500 nM, a Ki (GSK-3β, (AA 1-420)) of 1000 to 12500 nM and a Ki (JAK3) of 200 to 1000 nM.
For `O=C(c1cnc2[nH]cc(-c3oncc3-c3cccc(F)c3F)c2c1)N1CCCC1` [Compound 104, {3-[4-(2,3-Difluoro-phenyl)-isoxazol-5-yl]-1H-pyrrolo[2,3-b]pyridin-5-yl}-pyrrolidin-1-yl-methanone], the Ki (KDR) was 200 to 1000 nM, the Ki (GSK-3β, (AA 1-420)) was 1000 to 12500 nM and the Ki (JAK3) was 1000 to 12500 nM.
With `Cc1cnc2[nH]cc(-c3oncc3-c3cccc(F)c3F)c2c1` [Compound 46, 3-[4-(2,3-Difluoro-phenyl)-isoxazol-5-yl]-5-methyl-1H-pyrrolo[2,3-b]pyridine] the Ki (KDR) was 200 to 1000 nM, the Ki (GSK-3β, (AA 1-420)) was 1000 to 12500 nM and the Ki (JAK3) was 200 to 1000 nM.
In the case of `CN(C)C1CCC(c2cnc3[nH]cc(-c4oncc4-c4cccc(F)c4F)c3c2)CC1` (centres unmarked) [Compound 141, (4-{3-[4-(2,3-Difluoro-phenyl)-isoxazol-5-yl]-1H-pyrrolo[2,3-b]pyridin-5-yl}-cyclohexyl)-dimethylamine], the Ki (KDR) is reported as 1000 to 12500 nM, the Ki (GSK-3β, (AA 1-420)) is reported as < 200 nM and the Ki (JAK3) is reported as 200 to 1000 nM.
With `c1ccc(-c2cnoc2-c2c[nH]c3ncccc23)cc1` [Compound 35, 3-[4-Phenyl-isoxazol-5-yl]-1H-pyrrolo[2,3-b]pyridine] the Ki (KDR) was 200 to 1000 nM, the Ki (GSK-3β, (AA 1-420)) was 1000 to 12500 nM and the Ki (JAK3) was 200 to 1000 nM.
For `Fc1cccc(-c2cnoc2-c2n[nH]c3ncccc23)c1F` [Compound 31, 3-(4-(2,3-difluorophenyl)isoxazol-5-yl)-1H-pyrazolo[3,4-b]pyridine], the Ki (KDR) was 1000 to 12500 nM and the Ki (JAK3) was 1000 to 12500 nM.
`Fc1ccc(F)c(-c2cnoc2-c2c[nH]c3ncccc23)c1F` [Compound 41, 3-[4-(2,3,6-Trifluoro-phenyl)-isoxazol-5-yl]-1H-pyrrolo [2,3-b]pyridine] was tested, and the Ki (KDR) was 1000 to 12500 nM, the Ki (GSK-3β, (AA 1-420)) was 1000 to 12500 nM and the Ki (JAK3) was < 200 nM.
`C[N+]1(C)CCN(c2ccc(-c3cnc4[nH]cc(-c5oncc5-c5cccc(F)c5F)c4c3)cc2)CC1` [Compound 155] was tested, and the Ki (KDR) was < 200 nM, the Ki (GSK-3β, (AA 1-420)) was < 200 nM and the Ki (JAK3) was < 200 nM.
Compound `OCc1cnc2[nH]cc(-c3oncc3-c3cccc(F)c3F)c2c1` [Compound 55, {3-[4-(2,3-Difluoro-phenyl)-isoxazol-5-yl]-1H-pyrrolo[2,3-b]pyridin-5-yl}-methanol] has a Ki (KDR) of 200 to 1000 nM, a Ki (GSK-3β, (AA 1-420)) of 1000 to 12500 nM and a Ki (JAK3) of 1000 to 12500 nM.
In the case of `Fc1cnc2[nH]cc(-c3oncc3-c3cccc(F)c3F)c2c1` [Compound 45, 3-[4-(2,3-Difluoro-phenyl)-isoxazol-5-yl]-5-fluoro-1H-pyrrolo[2,3-b]pyridine], the Ki (KDR) is reported as 200 to 1000 nM, the Ki (GSK-3β, (AA 1-420)) is reported as 1000 to 12500 nM and the Ki (JAK3) is reported as 1000 to 12500 nM.
In the case of `Fc1cccc(-c2cnoc2-c2c[nH]c3ccc(-c4ccncc4)cc23)c1F` [Compound 34, 3-[4-(2,3-Difluoro-phenyl)-isoxazol-5-yl]-5-pyridin-4-yl-1H-indole], the Ki (GSK-3β, (AA 1-420)) is reported as 1000 to 12500 nM and the Ki (JAK3) is reported as 1000 to 12500 nM.
`Fc1cccc(-c2cnoc2-c2c[nH]c3ncc(Cl)cc23)c1F` [Compound 44, 3-[4-(2,3-Difluoro-phenyl)-isoxazol-5-yl]-5-chloro-1H-pyrrolo[2,3-b]pyridine] was tested, and the Ki (KDR) was 200 to 1000 nM, the Ki (GSK-3β, (AA 1-420)) was 200 to 1000 nM and the Ki (JAK3) was 200 to 1000 nM.
With `OB(O)c1cnc2[nH]cc(-c3oncc3-c3cccc(F)c3F)c2c1` [Compound 154] the Ki (KDR) was < 200 nM, the Ki (GSK-3β, (AA 1-420)) was 1000 to 12500 nM and the Ki (JAK3) was < 200 nM.
For `NC(=O)c1ccc(-c2cnc3[nH]cc(-c4oncc4-c4cccc(F)c4F)c3c2)cc1` [Compound 153], the Ki (KDR) was 200 to 1000 nM, the Ki (GSK-3β, (AA 1-420)) was 1000 to 12500 nM and the Ki (JAK3) was < 200 nM.
Compound `Fc1cccc(-n2cnnc2-c2c[nH]c3ncc(-c4ccc(N5CCNCC5)nc4)cc23)c1F` [Compound 111, 3-[4-(2,3-Difluoro-phenyl)-4H-[1,2,4]triazol-3-yl]-5-(6-piperazin-1-yl-pyridin-3-yl)-1H-pyrrolo[2,3-b]pyridine] has a Ki (KDR) of 1000 to 12500 nM, a Ki (GSK-3β, (AA 1-420)) of 1000 to 12500 nM and a Ki (JAK3) of 1000 to 12500 nM.
`Fc1cccc(-c2cnoc2-c2c[nH]c3ncc(CCn4cncn4)cc23)c1F` [Compound 132, 3-[4-(2,3-Difluoro-phenyl)-isoxazol-5-yl]-5-(2-[1,2,4]triazol-1-yl-ethyl)-1H-pyrrolo[2,3-b]pyridine] showed a Ki (KDR) of 1000 to 12500 nM, a Ki (GSK-3β, (AA 1-420)) of 200 to 1000 nM and a Ki (JAK3) of 1000 to 12500 nM.
Compound `Fc1cccc(-c2cnoc2-c2c[nH]c3nc(Cl)c(-c4ccncc4)cc23)c1F` [Compound 103, 6-Chloro-3-[4-(2,3-difluoro-phenyl)-isoxazol-5-yl]-5-pyridin-4-yl-1H-pyrrolo[2,3-b]pyridine] has a Ki (GSK-3β, (AA 1-420)) of 1000 to 12500 nM and a Ki (JAK3) of 1000 to 12500 nM.
